The assay relates to RA-treated SH-SY5Y cells. Nature of the assay: Neurite outgrowth of RA-treated SH-SY5Y cells. In kind it is cell-based, human. The method, then: FIG. 1. BDNF promotes neurite outgrowth of RA-treated SH-SY5Y, and induces phosphorylation of NgR1. (A) SH-SY5Y cells were incubated with indicated reagents. Cell images were taken with phase contrast microscopy. (B) Number of cells extending neurite-like structures of more than 40 μm and total cell number were counted from images taken in (A). More than 300 cells were examined in each sample. The proportion of cells extending neurite-like structures of more than 40 μm was indicated as a percentage of total cell number. An average of three experiments is shown. Error bars indicate S. E. between experiments. Data were analysed with student's t test. (C) Whole cell extracts were prepared from RA-treated SH-SY5Y cells after incubation with or without BDNF for 24 hours, and were analysed by SDS-PAGE. Immunoblotting was performed with the indicated antibodies. (D) Whole cell extract prepared from cells treated with both RA and BDNF was incubated with the indicated reagents for 1 hour at 37° C. Immunoblotting was performed with anti-NgR1 antibody. (E) RA-treated SH-SY5Y cells were incubated with BDNF in the presence or absence of one of the following: PKC inhibitor—500 nM Gö6983 or Gö6976; PKA inhibitor—2 μM KT5720 or a PKA inhibitor peptide 14-22; or either 500 nM or 1 μM of a casein kinase inhibitor, for 24 hours. Whole cell extracts prepared from these cells were analysed by SDS-PAGE. Immunoblotting was performed with anti-NgR1 antibody.
FIG. 2. CK2 promotes neurite outgrowth of RA-treated SH-SY5Y cells without BDNF. (A) RA-treated SH-SY5Y cells were incubated with the indicated reagents for 24 hours. Cell images were taken with phase contrast microscopy. (B) Number of cells extending neurite-like structures of more than 40 μm and total cell number were counted from images taken in (A). More than 300 cells were examined in each sample. Calculation was done as FIG. 1B. Result of student's t test between RA alone and RA+CK II+ATP was p=0.0014. (C) Myc-tagged wild type and mutant versions of NgR1 were over-expressed in SH-SY5Y cells. The cells were treated with RA, CK2 and ATP. Over-expressed NgR1-Myc was detected with anti-Myc antibody. (D) SH-SY5Y cells over-expressing 281S/A mutant NgR1-Myc were incubated with RA and NEP1-40. (E) SH-SY5Y cells over-expressing 281S/D mutant NgR1-Myc were treated as (C).
After fixation, beta-tubulin III was detected with anti-beta-tubulin III antibody. B, Wild type or 281S/A mutant NgR1-Myc was over-expressed in SH-SY5Y cells. After 5 days treatment with RA, these cells were incubated with 500 U/ml PKA and 500 nM (74 kBq/ml) ATP. Then, NgR1-Myc was immuno-precipitated and analysed with SDS-PAGE. […] NgR1-Myc was detected with anti-Myc antibody. […]

[1] abbreviates: RA-treated SH-SY5Y, substance alone, 24 hours.

The values that follow come from patent US9089565B2, “Compositions and methods for causing neurite outgrowth” (MEDICAL RESEARCH COUNCIL, priority 2009, dated 2015).

Turning to `Nc1ncnc2c1ncn2[C@@H]1O[C@H](COP(=O)(O)OP(=O)(O)OP(=O)(O)O)[C@@H](O)[C@H]1O` [ATP], the neurite outgrowth entry under setting [1] is “Neither addition of ATP alone nor CK2 alone to the culture medium induced neurite outgrowth”.

“NEP1-40: a competitive inhibitor of Nogo-66 binding to NgR1 (MEDLDQSPLVSSSDSPPRPQPAFKYQFVREPEDEEEEEEE; Nogo-66 residues 1-40; UniProt Q9NQC3 1-40, looked up, fragment) [reference compound]”: the neurite outgrowth result is “promoted neurite outgrowth” under setting [1] and “showed neurite outgrowth” (cells over-expressing 281S/A mutant NgR1, NEP1-40 for 24 hours).

B1: BDNF: brain-derived neurotrophic factor, member of the neurotrophin nerve growth factor family, purchased from Merck (protein, UniProt P23560 19-247, looked up)
Neurotrophic factor BDNF …: APMKEANIRGQGGLAYPGVRTHGTLESVNGPKAGSRGLTSLADTFEHVIEELLDEDQKVRPNEENNKDADLYTSRVMLSSQVPLEPPLLFLLEEYKNYLDAANMSMRVRRHSDPARRGELSVCDSISEWVTAADKKTAVDMSGGTVTVLEKVPVSKGQLKQYFYETKCNPMGYTKEGCRGIDKRHWNSQCRTTQSYVRALTMDSKKRIGWRFIRIDTSCVCTLTIKRGR
Consider B1, for which the neurite outgrowth result under setting [1] is listed as “efficient neurite outgrowth”.
